Series [1] deals with T1, NURR-1/RXRα (Homo sapiens, UniProt P19793).
T1 construct: expressed in transfected cells; host or cells: Cos-7 cells
As to the kind of experiment: Transactivation test, NURR-1-Gal4/RXRα, luciferase reporter in Cos-7 cells. The following applies: for Emax: COS-7, induction level relative to reference XCT0135908 at 2×10^−5 M (=100%), read-out: hNurr1_RXRaFL Emax (%); for EC50: Cos-7 cells, NURR-1-Gal4/RXRα, luciferase reporter, read-out: hNurr1_RXRaFL EC50. In kind it is cell-based.

For series [2], the target named is T2, NURR-1/RXRγ (Homo sapiens, UniProt P48443).
T2 construct: expressed in transfected cells; host or cells: Cos-7 cells
As to the kind of experiment: Transactivation test, NURR-1-Gal4/RXRγ, luciferase reporter in Cos-7 cells. It is filed as cell-based. The conditions noted are these: for Emax: COS-7, induction level relative to reference XCT0135908 at 2×10^−5 M (=100%), read-out: hNurr1_RXRgFL Emax (%); for EC50: Cos-7 cells, NURR-1-Gal4/RXRγ, luciferase reporter, read-out: hNurr1_RXRgFL EC50.

Each structure is given as a SMILES string. Where a name gives a salt, the structure may show the parent alone.

T2 sequence (P48443 whole entry): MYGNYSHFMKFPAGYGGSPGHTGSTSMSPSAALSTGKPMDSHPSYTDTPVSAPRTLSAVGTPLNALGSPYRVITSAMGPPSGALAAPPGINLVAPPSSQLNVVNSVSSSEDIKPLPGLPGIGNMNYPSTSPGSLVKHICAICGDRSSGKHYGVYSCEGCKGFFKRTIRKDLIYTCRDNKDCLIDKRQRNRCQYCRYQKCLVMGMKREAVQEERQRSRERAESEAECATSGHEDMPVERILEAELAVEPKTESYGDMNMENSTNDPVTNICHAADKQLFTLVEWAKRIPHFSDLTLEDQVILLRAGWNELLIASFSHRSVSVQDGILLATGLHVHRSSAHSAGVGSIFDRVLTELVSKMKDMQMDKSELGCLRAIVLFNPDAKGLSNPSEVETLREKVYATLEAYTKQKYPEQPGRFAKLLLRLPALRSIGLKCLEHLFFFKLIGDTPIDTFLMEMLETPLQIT
T2 sequence (P43354 whole entry partner): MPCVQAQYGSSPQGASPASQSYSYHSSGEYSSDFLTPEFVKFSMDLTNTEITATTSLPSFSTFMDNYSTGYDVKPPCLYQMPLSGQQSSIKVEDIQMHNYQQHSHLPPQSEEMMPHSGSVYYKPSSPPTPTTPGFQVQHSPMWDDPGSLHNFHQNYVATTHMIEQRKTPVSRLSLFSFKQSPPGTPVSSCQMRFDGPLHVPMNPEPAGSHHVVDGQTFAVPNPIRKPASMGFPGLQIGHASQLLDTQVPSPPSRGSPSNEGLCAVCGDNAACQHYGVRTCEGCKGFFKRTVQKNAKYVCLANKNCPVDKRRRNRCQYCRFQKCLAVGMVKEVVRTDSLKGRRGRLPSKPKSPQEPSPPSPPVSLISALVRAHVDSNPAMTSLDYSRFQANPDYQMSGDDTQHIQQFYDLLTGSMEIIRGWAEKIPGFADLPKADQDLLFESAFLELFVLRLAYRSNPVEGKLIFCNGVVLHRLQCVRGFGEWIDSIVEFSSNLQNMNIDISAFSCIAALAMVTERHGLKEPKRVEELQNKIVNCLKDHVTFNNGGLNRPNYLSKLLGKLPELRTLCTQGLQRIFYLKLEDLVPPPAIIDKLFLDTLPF
T2 sequence (P04386 1-147 partner limits assumed): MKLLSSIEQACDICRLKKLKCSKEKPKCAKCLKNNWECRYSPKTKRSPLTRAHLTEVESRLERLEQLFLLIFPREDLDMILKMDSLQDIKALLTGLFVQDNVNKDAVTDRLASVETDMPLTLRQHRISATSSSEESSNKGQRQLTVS
T1 sequence (P19793 whole entry): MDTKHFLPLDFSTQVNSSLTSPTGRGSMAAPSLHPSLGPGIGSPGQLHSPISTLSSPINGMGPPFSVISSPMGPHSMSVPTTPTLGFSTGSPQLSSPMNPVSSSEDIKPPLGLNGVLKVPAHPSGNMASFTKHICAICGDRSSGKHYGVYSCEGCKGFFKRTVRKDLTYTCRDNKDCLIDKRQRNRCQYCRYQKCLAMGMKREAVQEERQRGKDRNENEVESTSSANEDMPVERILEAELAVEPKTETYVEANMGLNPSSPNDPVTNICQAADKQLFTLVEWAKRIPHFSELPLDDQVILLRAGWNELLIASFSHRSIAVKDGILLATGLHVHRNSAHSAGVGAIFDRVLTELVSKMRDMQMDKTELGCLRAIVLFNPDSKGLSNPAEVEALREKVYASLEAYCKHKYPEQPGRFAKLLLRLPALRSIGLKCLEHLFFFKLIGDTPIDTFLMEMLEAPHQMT
T1 sequence (P43354 whole entry partner): as the sequence (P43354 whole entry partner) above
T1 sequence (P04386 1-147 partner limits assumed): as the sequence (P04386 1-147 partner limits assumed) above

`CCc1cc2c(c(-c3cccc(N4CC(C(=O)O)C4)c3)c1)NCC(C)(C)O2` (as salt: ammonium) [Example 207, tert-butylammonium 1-[3-(7-ethyl-2,2-dimethyl-3,4-dihydro-1,4-benzoxazin-5-yl)phenyl]azetidine-3-carboxylate] showed a melting point of 100 to 124 °C.
On the same count and under the same terms, to `CN1CC2(CCC2)Oc2cc(C(C)(C)C)cc(-c3cccc(N4CC(C(=O)O)C4)c3)c21` (as salt: ammonium) [Example 213, tert-butylammonium 1-[3-(7-tert-butyl-4-methyl-spiro[3H-1,4-benzoxazine-2,1′-cyclobutane]-5-yl)phenyl]azetidine-3-carboxylate] belongs 170 to 178 °C.
In the case of `O=C(O)C1CN(c2cccc(N3CC4(CCCC4)c4cc(Cl)ccc43)c2)C1` [Example 257, tert-butylammonium 1-[3-(5′-chlorospiro[cyclopentane-1,3′-indolin]-1′-yl)phenyl]azetidine-3-carboxyate], in series [1], the Emax worked out at 103% and the EC50 came out at 0.023 µM. Also, in series [2], the Emax is 89% and the EC50 turned out to be 0.059 µM.
Consider `CCC1(CC)C=C(c2cccc(N3CC(C(=O)O)C3)c2)c2ccc(C(F)(F)F)cc2O1` [Example 265], for which, in series [1], the Emax is 79% and the EC50 stood at 0.003 µM. In series [2], the Emax came to 79% and the EC50 came out at 0.008 µM.
`CN(C)CCOC(=O)C1CN(c2cccc(N3CC(C)(C)Oc4cc(C(F)(F)F)ccc43)c2)C1` [Example 272, 2-dimethylaminoethyl 1-[3-[2,2-dimethyl-7-(trifluomethyl)-3H-1,4-benzoxazin-4-yl]phenyl]azetidine-3-carboxylate]: in series [1], the Emax stood at 117% and the EC50 came to 0.004 µM. In series [2], the Emax stood at 124% and the EC50 came out at 0.004 µM.
Turning to `CC1(C)CN(c2cccc(N3CC(C(=O)NCCO)C3)c2)c2ccc(C(F)(F)F)cc2O1` [Example 275, 1-[3-[2,2-dimethyl-7-(trifluoromethyl)-3H-1,4-benzoxazin-4-yl]phenyl]-N-(2-hydroxyethyl)azetidine-3-carboxamide], the Emax is 109% in series [1] and 98% in series [2]. Besides, the EC50 was 0.008 µM in series [1] and 0.044 µM in series [2].
Taken in the same sequence, the figures for `CC1(C)CN(c2cccc(N3CC(C(=O)NC(CO)CO)C3)c2)c2ccc(C(F)(F)F)cc2O1` [Example 276, 1-[3-[2,2-dimethyl-7-(trifluoromethyl)-3H-1,4-benzoxazin-4-yl]phenyl]N-[2-hydroxy-1-(hydroxymethyl)ethyl]azetidine-3-carboxamide] were 105%, 92%, 0.015 µM and 0.15 µM.
The corresponding values for `CC1(C)CN(c2cccc(N3CC(C(=O)NCC(O)CO)C3)c2)c2ccc(C(F)(F)F)cc2O1` (stereo not drawn) [Example 277, N-(2,3-dihydroxypropyl)-1-[3-[2,2-dimethyl-7-(trifluoromethyl)-3H-1,4-benzoxazin-4-yl]phenyl]azetidine-3-carboxamide] are 103%, 97%, 0.019 µM and 0.052 µM.
The corresponding values for `CC1(C)CN(c2cccc(N3CC(C(=O)NCCCO)C3)c2)c2ccc(C(F)(F)F)cc2O1` [Example 278, 1-[3-[2,2-dimethyl-7-(trifgluoromethyl)-3H-1,4-benzoxazin-4-yl]phenyl]-N-(3-hydroxypropyl)azetidine-3-carboxamide] are 110%, 117%, 0.029 µM and 0.074 µM.
In the case of `CN(C)CCNC(=O)C1CN(c2cccc(N3CC(C)(C)Oc4cc(C(F)(F)F)ccc43)c2)C1` [Example 279, N-3(2-dimethylaminoethyl)-1-[3-[2,2-dimethyl-7-(trifluoromethyl)-3H-1,4-benzoxazin-4-yl]phenyl]azetidine-3-carboxamide], the Emax is 95% in series [1] and 79% in series [2]. For the same compound, the EC50 in series [1] was determined as 0.375 µM.
